According to patent US5382596A, “Substituted 2-aminotetralins” (priority 1993, dated 1995):
Like-named read-outs stand apart in the source and are kept apart here.

Columns and labels:
[1] = target: Dopamine D1 receptor (Bos taurus, UniProt Q95136); test: biochemical; assay type: binding, bovine; conditions: bovine caudate membranes, 3H-SCH23390, 37° C., 15 min; read-out: D1 K1
Description: (§1) Membranes were prepared using a Brinkmann Polytron and collected by centrifugation. Membrane sources were bovine caudate (D2,D1) or rat cortex (α2). The membranes were washed, resuspended, and incubated at 37° C. for 30 min. in either the presence (rat cortex) of 1 μ/ml adenosine deaminase or absence (bovine caudate) of 0.1 μ/ml adenosine deaminase. Membranes were centrifuged, washed once and frozen at -70° C. until used. Immediately before use, the membranes were thawed, washed once, and resuspended to a final concentration of 0.5-2 mg/ml. Assays were initiated by addition of membranes. For D2 and D1 assays, the radioligands and conditions used were ^3 H-Spiperone (RT, 75 min.) and ^3 H-SCH23390 (37° C., 15 min.), respectively. For α2 assays, ^3 H-PAC (RT, 30 min.) was used Assays were terminated by filtration using a Brandel cell harvester over Whatman GF/B filters that had been pretreated with 0.1% polyethylenimine. […]

[2] = target: Dopamine D2 receptor (Bos taurus, UniProt P20288); test: biochemical; assay type: binding, bovine; conditions: for Ki: bovine caudate membranes, 3H-Spiperone, RT, 75 min, read-out: D2 K1
Chain of Dopamine D2 receptor (P20288 whole entry): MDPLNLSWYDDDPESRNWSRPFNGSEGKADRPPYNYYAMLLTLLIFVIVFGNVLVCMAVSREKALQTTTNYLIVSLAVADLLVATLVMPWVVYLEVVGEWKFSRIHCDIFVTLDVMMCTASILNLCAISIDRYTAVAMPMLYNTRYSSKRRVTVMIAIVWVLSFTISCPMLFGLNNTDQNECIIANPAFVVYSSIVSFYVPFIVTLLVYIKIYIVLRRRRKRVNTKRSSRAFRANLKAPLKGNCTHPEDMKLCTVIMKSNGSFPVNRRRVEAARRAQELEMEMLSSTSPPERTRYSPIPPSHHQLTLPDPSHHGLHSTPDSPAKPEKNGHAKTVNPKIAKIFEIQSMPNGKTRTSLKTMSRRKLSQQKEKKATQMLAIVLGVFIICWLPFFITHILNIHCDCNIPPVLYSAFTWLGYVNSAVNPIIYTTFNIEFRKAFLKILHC
Description: as §1

[3] = system: denervated supersensitive postsynaptic dopamine receptors; test: In vivo functional test: contralateral circling in rats with unilateral 6-hydroxydopamine lesions of the substantia nigra; set-up: species or system rat; conditions: contralateral circling, rats, unilateral 6-hydroxydopamine lesion
From the text: Dopamine agonists produce contralateral circling behavior in rats in which unilateral lesions of the substantial nigra are made by prior injection of 6-hydroxydopamine. The circling is thought to be mediated by stimulation of denervated supersensitive postsynaptic dopamine receptors (Marshall and Ungerstedt, 1977, Eur. J. Pharmacol., 41:361-367).

[4] = target: adrenergic α2 receptor (Rattus norvegicus, UniProt P22909); test: Adrenergic α2 in vitro functional test (rat vas deferens, inhibition of twitch); assay type: biochemical
Description: (§2) Vasa deferentia from male Sprague-Dawley rats weighing between 150-250 g were removed and placed in isolated organ baths containing Krebs-Henseleitsolution under a resting tension of 1 g. All other set up conditions were identical to those used for the mouse was deferens. Tissues were pretreated with propranolol (1 μM), ascorbic acid (100 μM) and the α1 -adrenergic antagonist prazosin (0.3 or 1 μM) for 60 min before the addition of test compound.

[5] = target: dopamine D2 receptor (Mus musculus, UniProt P61168); test: biochemical; assay type: biochemical; conditions: for EC50: concentration that produces 50% of the maximal inhibition of twitch, mouse vas deferens, read-out: D2 A50
Chain of dopamine D2 receptor (P61168 whole entry): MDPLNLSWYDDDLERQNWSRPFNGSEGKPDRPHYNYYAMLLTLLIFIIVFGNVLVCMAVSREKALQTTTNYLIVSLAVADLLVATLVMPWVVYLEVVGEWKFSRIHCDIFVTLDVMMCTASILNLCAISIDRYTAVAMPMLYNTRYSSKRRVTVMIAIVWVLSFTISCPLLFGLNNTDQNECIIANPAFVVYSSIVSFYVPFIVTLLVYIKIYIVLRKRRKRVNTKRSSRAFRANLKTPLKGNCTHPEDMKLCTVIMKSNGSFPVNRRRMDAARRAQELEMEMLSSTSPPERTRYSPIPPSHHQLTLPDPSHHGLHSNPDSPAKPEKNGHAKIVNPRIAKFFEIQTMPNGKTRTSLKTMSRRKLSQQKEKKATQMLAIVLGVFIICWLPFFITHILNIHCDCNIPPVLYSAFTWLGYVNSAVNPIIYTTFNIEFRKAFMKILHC
Description: Vasa deferentia from male BALB/C mice weighing approximately 30 g were removed and placed in isolated organ baths containing magnesium-free modified Krebs-Henseleit solution which was gassed with 95% O2 and 5% CO2 and maintained at 37° C. Tissues were set up under resting tension of 0.5 g and stimulated electrically at 60 volts, 0.1 Hz and 1 msec duration to produce a series of twitch responses. Tissues were pretreated with propranolol (1 μM) to block β-adrenoceptors, idazoxan (3 μM) to block α2 -adrenoceptors receptors, and ascorbic acid (100 μM) for 60 min before the addition of test compound.

[6] = target: T1, adrenergic α2 receptor (Rattus norvegicus, UniProt P22909); test: Adrenergic α2 in vitro functional test (rat vas deferens, inhibition of twitch); assay type: biochemical; conditions: concentration that produces 50% of the maximal inhibition of twitch; rat vas deferens; read-out: a2 A50
T1 sequence (P22909 1-465): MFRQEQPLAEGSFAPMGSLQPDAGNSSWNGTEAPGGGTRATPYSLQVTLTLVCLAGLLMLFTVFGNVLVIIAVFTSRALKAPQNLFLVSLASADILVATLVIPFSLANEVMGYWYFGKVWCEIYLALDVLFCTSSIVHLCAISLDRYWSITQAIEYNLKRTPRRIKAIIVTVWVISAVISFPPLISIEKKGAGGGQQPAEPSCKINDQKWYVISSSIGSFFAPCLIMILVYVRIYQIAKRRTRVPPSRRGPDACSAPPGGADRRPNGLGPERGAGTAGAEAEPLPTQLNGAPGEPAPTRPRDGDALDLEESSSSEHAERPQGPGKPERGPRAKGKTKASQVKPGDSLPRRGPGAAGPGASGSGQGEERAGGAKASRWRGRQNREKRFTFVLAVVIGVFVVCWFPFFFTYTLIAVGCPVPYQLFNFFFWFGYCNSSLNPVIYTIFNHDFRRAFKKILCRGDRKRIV
Description: as §2

Chain of Dopamine D1 receptor (Q95136 whole entry): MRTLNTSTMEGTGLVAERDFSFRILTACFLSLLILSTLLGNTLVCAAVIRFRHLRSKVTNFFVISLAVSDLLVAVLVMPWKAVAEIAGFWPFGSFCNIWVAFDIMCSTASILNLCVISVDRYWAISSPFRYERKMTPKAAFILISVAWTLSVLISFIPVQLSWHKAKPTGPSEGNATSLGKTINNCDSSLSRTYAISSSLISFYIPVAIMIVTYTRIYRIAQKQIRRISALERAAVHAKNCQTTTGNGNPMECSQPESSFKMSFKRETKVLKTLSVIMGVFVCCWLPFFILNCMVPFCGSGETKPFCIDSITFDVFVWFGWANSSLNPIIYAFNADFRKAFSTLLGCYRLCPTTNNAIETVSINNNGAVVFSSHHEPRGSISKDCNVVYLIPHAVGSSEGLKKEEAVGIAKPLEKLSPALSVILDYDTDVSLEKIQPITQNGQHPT

SMILES | Ki [1] [nM] | Ki [2] [nM] | ED50 [3] [µmol/kg] | EC50 [4] [nM] | EC50 [5] [nM] | Selectivity Ratio (D1 K1/D2 K1) [2] | EC50 [6] [nM] | Specificity Ratio (a2 A50/D2 A50) [5]
CCCN(CCOC)[C@H]1CCc2c(ccc(O)c2O)C1 [Example 4] | 7080 | 363 | 0.006 | 42.7 | 0.603 | – | – | –
CCCN(CCCOC(C)C)[C@H]1CCc2c(ccc(O)c2O)C1 [Example 13] | 5750 | 51 | 0.006 | – | 0.102 | 113 | 93.3 | 914
CCCN(CC1CCCO1)[C@H]1CCc2c(O)cccc2C1 (stereo partly shown) [Example 22] | 16200 | 1510 | 0.030 | – | 2.19 | 11 | 3550 | 1620
CCCN(CCOC1CCC1)[C@H]1CCc2c(O)cccc2C1 [Example 18] | 8910 | 200 | 0.020 | – | 0.676 | 45 | > 10000 | > 14800
CCCN(CCOC1CC1)[C@H]1CCc2c(O)cccc2C1 [Example 17] | 9770 | 468 | 0.009 | – | 0.589 | 21 | > 10000 | > 17000
CCCN(CCC1CCOC1)[C@H]1CCc2c(O)cccc2C1 (stereo partly shown) [Example 24] | 5620 | 263 | 0.020 | – | 0.776 | 21 | 123 | 158
CCCN(CCOCC)[C@H]1CCc2c(ccc(O)c2O)C1 [Example 2, (S)-6-[[2-(ethoxy)ethyl]propylamino]-5,6,7,8-tetrahydro-1,2-naphthalenediol] | 6310 | 316 | 0.004 | – | 0.417 | 20 | 18.6 | 45
CCCN(CCOC(C)CC)[C@H]1CCc2c(ccc(O)c2O)C1 (stereo partly shown) [Example 5] | 4570 | 115 | 0.006 | – | 0.24 | 40 | 245 | 1020
CCCN(CC1CCOC1)[C@H]1CCc2c(O)cccc2C1.Cl (stereo partly drawn) [Example 21, (6S)-5,6,7,8-tetrahydro-6-[[(tetrahydro-3-furanyl)methyl]propylamino]-1-naphthalenol, hydrochloride] | 3630 | 151 | 0.009 | – | 0.977 | 24 | 275 | 282
